# Reference: patent US20130266663A1, “SOX9 INHIBITORS” (priority 2010, published 2013)
# Columns and labels:
# Format in all cases: cell-based, rat
# SOX9 = SOX9 luciferase reporter assay in transfected astrocytes; conditions: for inhibition of SOX9 activity (luciferase assay): 24 h; for luciferase reporter activity (SOX9 activity) / concentration at which the decrease in luciferase reporter activity is optimized / maximal: cultured rat astrocytes; for luciferase reporter activity (SOX9 activity) / reduction of Sox9 activity as indicated by luciferase expression / concentration at which the decrease in luciferase reporter activity is optimized / maximal: 24 h treatment; for luciferase reporter activity (SOX9 activity): various concentrations (FIG. 5); for reduction of Sox9 activity as indicated by luciferase expression: concentration not stated (FIG. 5)
# Source text: Cultures early after plating bear characteristics of immature and reactive astroctyes associated with acute damage. In this assay, primary astrocytes are transfected with a SOX9 reporter construct that consists of 4 repeats of the SOX9 binding site coupled to the mouse Col2a1 minimal promoter cloned upstream of a luciferase gene in the plasmid pGL4, as previously described in WO 2008/049226. After normalization for transfection efficiency, SOX9 activity can be monitored in transfected astrocytes by luciferase activity. Cells transfected with the SOX9 reporter construct were cultured in the presence and absence of potential inhibitors for 24 hours at which time the cells were lysed and luciferase levels measured. Compounds that reduced the levels of luciferase activity relative to control wells were considered as positive “hits”. In a secondary screen, false positives that cause a reduction in luciferase activity due to effects on cell viability, were eliminated using a cell viability assay (CellTiter-Flour—Promega). Subsequent to secondary screening, the “hits” were evaluated for their affect on SOX9 target gene expression by Q-PCR studies in primary astrocytes.
# The utility of calmodulin antagonists (inhibitor) to decrease SOX9 target gene expression was evaluated in cultured rat astrocytes transfected with pGL4.1 4×48 Col2a1 prepared as described in Example 1. This plasmid contains 4-48 bp SOX9-binding sites from the Col2A1 enhancer which promote luciferase reporter gene expression in cells where SOX9 is active i.e. in the nucleus. The day after transfection, cells were treated for 24 h with inhibitor in concentrations as described below and in FIG. 5 before the luciferase assay was performed.
# In this example, the potential of compounds that modulate calcium channels to modulate SOX9 activity is tested. The compounds were evaluated in cultured rat astrocytes transfected with pGL4.1 4×48 Col2a1. The day after transfection, cells were treated for 24 h with selected inhibitors before the luciferase assay was performed.
# Antagonists to TRPV4 cation channel were tested to determine their ability to decrease the activity of SOX9 in astrocytes. The effect of TRPV4 antagonists on SOX9 function was evaluated in cultured rat astrocytes transfected with pGL4.1 4×48 Col2a1. The day after transfection, cells were treated for 24 h with 2-APB (100 μM) or ruthenium red (10 μM) before the luciferase assay was performed. […] With respect to SOX9 target genes, Q-PCR analysis of aged primary astrocyte cultures was performed to determine the impact of the TRPV4 antagonists on SOX9. […] Collagen IV is a significant scarring extracellular matrix produced by astrocytes and contributing to the inhibitory properties of the glial scar.
# SOX9 target genes = test: Q-PCR of SOX9 target gene expression in aged primary astrocyte cultures; design: reduction of XT-1 expression / reduction of HAPLN1 expression / reduction of aggrecan expression / reduction of Col2a expression / reduction of Col4a expression: concentration or dose not given beside the values
# Source text: Another approach to modulating the capacity of calmodulin to transport SOX9 into the nucleus is via competitive inhibition of calmodulin binding. To that effect, a novel peptide (SOX-CAL) was generated to specifically block the calmodulin SOX9 binding site. The SOX-CAL peptide sequence, […] (SEQ ID NO.8), corresponds with the calmodulin binding sequence in SOX9. To ensure the peptide's entry into the cell, it was synthesized fused to the protein transduction domain of the HIV-1 Tat protein. […] This analysis was performed in contrast to the control FLAG-TAT peptide.
# Antagonists to TRPV4 cation channel were tested to determine their ability to decrease the activity of SOX9 in astrocytes. The effect of TRPV4 antagonists on SOX9 function was evaluated in cultured rat astrocytes transfected with pGL4.1 4×48 Col2a1. The day after transfection, cells were treated for 24 h with 2-APB (100 μM) or ruthenium red (10 μM) before the luciferase assay was performed. The broad-spectrum transient receptor potential (TRP) channel antagonist 2-APB inhibited SOX9 activity by ˜70%, while the vanniloid subfamily-specific TRP antagonist ruthenium red inhibited SOX9 activity by ˜25%. With respect to SOX9 target genes, Q-PCR analysis of aged primary astrocyte cultures was performed to determine the impact of the TRPV4 antagonists on SOX9. Treatment with ruthenium red specifically reduces aggrecan and Col4a expression by 40% and 50%, respectively (FIG. 6B), while 2-APB reduces XT-1, HAPLN1, aggrecan, Col2a, and Col4a by 50%, 70%, 80%, 50%, and 60% respectively (FIG. 6B, C), in rat primary astrocytes after a 48 hour exposure (n=3). […] Based on the role that the TRP channels serve in modulating calcium levels, and therefore calmodulin activity, the effect of the TRP channel blockers on SOX9 activity appears to be indirect.
# Collagen IV = test: Western blotting of astrocyte culture protein extract probed with anti-collagen IV; conditions: Cal-TAT treated vs control cultures
# [1] = rat primary astrocytes, 48 hour exposure, n=3
# [2] = primary astrocyte cultures, in contrast to control FLAG-TAT peptide (FIG. 7C)
compound,measurement,setting,value
NCCOB(c1ccccc1)c1ccccc1 [2-APB],inhibition of SOX9 activity (luciferase assay),SOX9; 100 μM,~70%
same,luciferase reporter activity (SOX9 activity),SOX9,significantly reduce luciferase production
same,reduction of Col2a expression,SOX9 target genes; [1],50%
same,reduction of Col4a expression,SOX9 target genes; [1],60%
same,reduction of HAPLN1 expression,SOX9 target genes; [1],70%
same,reduction of XT-1 expression,SOX9 target genes; [1],50%
same,reduction of aggrecan expression,SOX9 target genes; [1],80%
"Clc1ccc(C(c2ccc(Cl)cc2)n2cc[n+](CC(OCc3ccc(Cl)cc3Cl)c3ccc(Cl)cc3Cl)c2)cc1 (stereo not drawn) [Calmidazolium, calmidazolium]",reduction of Sox9 activity as indicated by luciferase expression,SOX9,approximately 20%
"OCCN1CCN(CCCN2c3ccccc3Sc3ccc(C(F)(F)F)cc32)CC1 [Fluphenazine, fluphenazine]",luciferase reporter activity (SOX9 activity),SOX9,dose dependent decrease in reporter activity
"COc1ccc2cc1Oc1ccc(cc1)C[C@H]1c3cc(c(OC)cc3CCN1C)Oc1c(OC)c(OC)cc3c1[C@H](C2)N(C)CC3 [Tetrandine, Tetrandrine]",reduction of Sox9 activity as indicated by luciferase expression,SOX9,approximately 20%
NCCCCCCNS(=O)(=O)c1cccc2ccccc12 [W5],concentration at which the decrease in luciferase reporter activity is optimized / maximal,SOX9,50 µM
same,luciferase reporter activity (SOX9 activity),SOX9,does dependent decreases in reporter activity
NCCCCCCNS(=O)(=O)c1cccc2c(Cl)cccc12 [W7],concentration at which the decrease in luciferase reporter activity is optimized / maximal,SOX9,50 µM
same,luciferase reporter activity (SOX9 activity),SOX9,does dependent decreases in reporter activity
CC(COc1ccccc1)N(CCCl)Cc1ccccc1 (stereo not drawn) [phenoxybenzamine],reduction of Sox9 activity as indicated by luciferase expression,SOX9,up to 80%
same,luciferase reporter activity (SOX9 activity),SOX9,dose dependent inhibition of reporter activity at 20 and 50 uM
N.N.N.N.N.N.N.N.N.N.N.N.N.N.[Cl-].[Cl-].[Cl-].[Cl-].[Cl-].[Cl-].[O-2].[O-2].[Ru+3].[Ru+3].[Ru+4] [ruthenium red],inhibition of SOX9 activity (luciferase assay),SOX9; 10 μM,~25%
same,reduction of Sox9 activity as indicated by luciferase expression,SOX9,about 25%
same,luciferase reporter activity (SOX9 activity),SOX9,significantly reduce luciferase production
same,reduction of Col4a expression,SOX9 target genes; [1],50%
same,reduction of aggrecan expression,SOX9 target genes; [1],40%
"Cal-TAT: SOX-CAL peptide fused to the HIV-1 Tat transduction domain, one N-/C-terminal configuration (KRPMNAFMVWAQAARRKYGRKKRRQRRR)",expression of C4ST,"SOX9 target genes; 10 uM peptide, 48 hours",significantly reduced
same,expression of XT1,"SOX9 target genes; 10 uM peptide, 48 hours",significantly reduced
same,Collagen 2A expression,SOX9 target genes; [2],significant reduction
same,GFAP expression,SOX9 target genes; [2],significant reduction
same,XT-1 expression,SOX9 target genes; [2],significant reduction
same,aggrecan expression,SOX9 target genes; [2],significant reduction
same,brevican expression,SOX9 target genes; [2],significant reduction
same,level of type IV collagen (Western blot),Collagen IV,reduced level of type IV collagen
RRPMNAFMVWAQAARRK [SOX-CAL peptide],SOX9 target genes expression,SOX9 target genes; longer treatments (1 week),even more profound reductions
"TAT-Cal: SOX-CAL peptide fused to the HIV-1 Tat transduction domain, other N-/C-terminal configuration (YGRKKRRQRRRKRPMNAFMVWAQAARRK)",expression of C4ST,"SOX9 target genes; 10 uM peptide, 48 hours",significantly reduced
same,expression of Sox9,"SOX9 target genes; 10 uM peptide, 48 hours",increased
same,expression of XT1,"SOX9 target genes; 10 uM peptide, 48 hours",significantly reduced
